Data from US5840684A, “Glycopeptide antibiotic derivatives” (Eli Lilly and Company, priority 1995, dated 1998).
Values after ≈ are worked out from the molar mass of the structure shown.

Columns and labels:
[1] = test system: Staphylococcus aureus S13E; format: cell-based
Protocol: (§1) The MIC's were determined using a standard broth micro-dilution assay.

[2] = test system: Staphylococcus aureus SA1199B; format: cell-based
Protocol: as §1

[3] = test system: Entercoccus faecium 180-1; experiment: broth micro-dilution MIC; format: cell-based
Protocol: as §1

[4] = test system: Staphylococcus aureus 446; experiment: broth micro-dilution MIC; format: cell-based
Protocol: as §1

[5] = test system: Staphylococcus aureus 447; experiment: broth micro-dilution MIC; format: cell-based
Protocol: as §1

[6] = test system: Staphylococcus aureus 491; experiment: broth micro-dilution MIC; format: cell-based
Protocol: as §1

[7] = test system: Staphylococcus aureus SA1199A; experiment: broth micro-dilution MIC; format: cell-based
Protocol: as §1

[8] = test system: Staphylococcus aureus X400; experiment: broth micro-dilution MIC; format: cell-based
Protocol: as §1

[9] = test system: Staphylococcus aureus X778; experiment: broth micro-dilution MIC; format: cell-based
Protocol: as §1

[10] = test system: Streptococcus pyogenes C203; experiment: broth micro-dilution MIC; format: cell-based
Protocol: as §1

[11] = test system: Entercoccus faecium 180; experiment: broth micro-dilution MIC; format: cell-based; settings: Entercoccus faecium 180
Protocol: (§2) The formula I compounds have in vitro and in vivo activity against Gram-positive pathogenic bacteria. The MIC's were determined using a standard broth micro-dilution assay.

[12] = test system: Enterococcus gallinarum 245; experiment: broth micro-dilution MIC; format: cell-based; settings: Enterococcus gallinarum 245
Protocol: as §2

[13] = test system: Staphylococcus epidermidis 270; experiment: broth micro-dilution MIC; format: cell-based
Protocol: as §2

[14] = test system: Staphylococcus haemolyticus 105; experiment: broth micro-dilution MIC; format: cell-based
Protocol: as §2

[15] = test system: Staphylococcus haemolyticus 415; experiment: broth micro-dilution MIC; format: cell-based
Protocol: as §2

[16] = test system: Streptococcus pneumoniae P1; experiment: broth micro-dilution MIC; format: cell-based
Protocol: as §2

[17] = test system: vancomycin-resistant enterococci; experiment: broth micro-dilution, mean geometric MIC; format: cell-based, Enterococcus faecium and Enterococcus faecalis; settings: enterococci, 24-hour incubation
[18] = test system: vancomycin-susceptible enterococci; experiment: broth micro-dilution, mean geometric MIC; format: cell-based, Enterococcus faecium and Enterococcus faecalis; settings: enterococci, 24-hour incubation
[19] = test system: Entercoccus faecium 276; experiment: broth micro-dilution MIC; format: cell-based
Protocol: as §1

[20] = test system: Staphylococcus aureus SA1199; experiment: broth micro-dilution MIC; format: cell-based
Protocol: as §1

[21] = test system: Entercoccus faecium 2041; experiment: broth micro-dilution MIC; format: cell-based; settings: Entercoccus faecium 2041
Protocol: as §2

Row | SMILES | MIC [1] [µg/mL] | MIC [2] [µg/mL] | MIC [3] [µg/mL] | MIC [4] [µg/mL] | MIC [5] [µg/mL] | MIC [6] [µg/mL] | MIC [7] [µg/mL] | MIC [8] [µg/mL] | MIC [9] [µg/mL] | MIC [10] [µg/mL] | MIC [11] [µg/mL] | MIC [12] [µg/mL] | MIC [13] [µg/mL] | MIC [14] [µg/mL] | MIC [15] [µg/mL] | MIC [16] [µg/mL] | mean geometric MIC, Vancomycin Resistant Strains [17] [µg/mL] | mean geometric MIC, Vancomycin Sensitive Strains [18] [µg/mL] | MIC [20] [µg/mL] | MIC [21] [µg/mL] | other results
1 | CNC(CC(C)C)C(=O)NC1C(=O)NC(CC(N)=O)C(=O)NC2C(=O)NC3C(=O)NC(C(=O)NC(C(=O)O)c4cc(O)cc(O)c4-c4cc3ccc4O)C(OC3CC(C)(N)C(O)C(C)O3)c3ccc(c(Cl)c3)Oc3cc2cc(c3OC2OC(CO)C(O)C(O)C2OC2CC(C)(NCc3ccc([S+]([O-])c4ccccc4)cc3)C(O)C(C)O2)Oc2ccc(cc2Cl)C1O (stereo not shown) [Compound 159] | 1 (≈ 0.553 µM) | ≤ 0.06 | ≤ 0.06 | 0.5 (≈ 0.277 µM) | 4 (≈ 2.21 µM) | 2 (≈ 1.11 µM) | ≤ 0.06 | 4 (≈ 2.21 µM) | 2 (≈ 1.11 µM) | ≤ 0.06 | 2 (≈ 1.11 µM) | 8 (≈ 4.43 µM) | 0.5 (≈ 0.277 µM) | 16 (≈ 8.86 µM) | 8 (≈ 4.43 µM) | ≤ 0.06 | 27 | 0.50 | – | – | –
2 | CNC(CC(C)C)C(=O)NC1C(=O)NC(CC(N)=O)C(=O)NC2C(=O)NC3C(=O)NC(C(=O)NC(C(=O)O)c4cc(O)cc(O)c4-c4cc3ccc4O)C(OC3CC(C)(N)C(O)C(C)O3)c3ccc(c(Cl)c3)Oc3cc2cc(c3OC2OC(CO)C(O)C(O)C2OC2CC(C)(NCC=Cc3ccccc3)C(O)C(C)O2)Oc2ccc(cc2Cl)C1O (stereo not shown) [Compound 38] | ≤ 0.06 | – | ≤ 0.06 | 0.5 (≈ 0.293 µM) | – | 0.5 (≈ 0.293 µM) | – | 1 (≈ 0.585 µM) | 0.5 (≈ 0.293 µM) | ≤ 0.06 | ≤ 0.06 | – | 0.5 (≈ 0.293 µM) | 1 (≈ 0.585 µM) | 1 (≈ 0.585 µM) | ≤ 0.06 | 4.0 | 0.42 | 1 (≈ 0.585 µM) | ≤ 0.06 | MIC [19]: 0.5 µg/mL (≈ 0.293 µM)
3 | CNC(CC(C)C)C(=O)NC1C(=O)NC(CC(N)=O)C(=O)NC2C(=O)NC3C(=O)NC(C(=O)NC(C(=O)O)c4cc(O)cc(O)c4-c4cc3ccc4O)C(OC3CC(C)(N)C(O)C(C)O3)c3ccc(c(Cl)c3)Oc3cc2cc(c3OC2OC(CO)C(O)C(O)C2OC2CC(C)(NCc3ccc(N4CCOCC4)cc3)C(O)C(C)O2)Oc2ccc(cc2Cl)C1O (stereo not shown) [Compound 147] | 1 (≈ 0.566 µM) | ≤ 0.06 | 2 (≈ 1.13 µM) | 0.5 (≈ 0.283 µM) | – | ≤ 0.06 | ≤ 0.06 | 4 (≈ 2.26 µM) | – | ≤ 0.06 | 2 (≈ 1.13 µM) | – | – | 1 (≈ 0.566 µM) | 8 (≈ 4.53 µM) | ≤ 0.06 | – | 1.3 | 0.5 (≈ 0.283 µM) | ≤ 0.06 | –
4 | CNC(CC(C)C)C(=O)NC1C(=O)NC(CC(N)=O)C(=O)NC2C(=O)NC3C(=O)NC(C(=O)NC(C(=O)O)c4cc(O)cc(O)c4-c4cc3ccc4O)C(OC3CC(C)(N)C(O)C(C)O3)c3ccc(c(Cl)c3)Oc3cc2cc(c3OC2OC(CO)C(O)C(O)C2OC2CC(C)(NCCc3cccc(OCc4ccccc4)c3)C(O)C(C)O2)Oc2ccc(cc2Cl)C1O (stereo not shown) [Compound 69] | – | 2 (≈ 1.11 µM) | ≤ 0.06 | 1 (≈ 0.555 µM) | 1 (≈ 0.555 µM) | 1 (≈ 0.555 µM) | ≤ 0.06 | 0.5 (≈ 0.277 µM) | – | – | 4 (≈ 2.22 µM) | 8 (≈ 4.44 µM) | 2 (≈ 1.11 µM) | 4 (≈ 2.22 µM) | 8 (≈ 4.44 µM) | – | 13 | 0.44 | 1 (≈ 0.555 µM) | – | MIC [19]: 0.5 µg/mL (≈ 0.277 µM)
5 | CNC(CC(C)C)C(=O)NC1C(=O)NC(CC(N)=O)C(=O)NC2C(=O)NC3C(=O)NC(C(=O)NC(C(=O)O)c4cc(O)cc(O)c4-c4cc3ccc4O)C(OC3CC(C)(N)C(O)C(C)O3)c3ccc(c(Cl)c3)Oc3cc2cc(c3OC2OC(CO)C(O)C(O)C2OC2CC(C)(NCc3ccc(OC(C)=O)c(OC)c3)C(O)C(C)O2)Oc2ccc(cc2Cl)C1O (stereo not shown) [Compound 99] | 0.5 (≈ 0.282 µM) | 0.5 (≈ 0.282 µM) | ≤ 0.06 | 0.5 (≈ 0.282 µM) | 2 (≈ 1.13 µM) | 1 (≈ 0.565 µM) | 0.5 (≈ 0.282 µM) | – | 0.5 (≈ 0.282 µM) | – | – | 32 (≈ 18.1 µM) | 1 (≈ 0.565 µM) | 8 (≈ 4.52 µM) | 32 (≈ 18.1 µM) | – | 72 | 0.76 | 0.5 (≈ 0.282 µM) | – | –
6 | CNC(CC(C)C)C(=O)NC1C(=O)NC(CC(N)=O)C(=O)NC2C(=O)NC3C(=O)NC(C(=O)NC(C(=O)O)c4cc(O)cc(O)c4-c4cc3ccc4O)C(OC3CC(C)(N)C(O)C(C)O3)c3ccc(c(Cl)c3)Oc3cc2cc(c3OC2OC(CO)C(O)C(O)C2OC2CC(C)(NCC34CC5CC(CC(C5)C3)C4)C(O)C(C)O2)Oc2ccc(cc2Cl)C1O (stereo not shown) [Compound 141] | – | 2 (≈ 1.15 µM) | ≤ 0.06 | 2 (≈ 1.15 µM) | 1 (≈ 0.574 µM) | 0.5 (≈ 0.287 µM) | ≤ 0.06 | – | 0.5 (≈ 0.287 µM) | ≤ 0.06 | 0.5 (≈ 0.287 µM) | 4 (≈ 2.3 µM) | 1 (≈ 0.574 µM) | 1 (≈ 0.574 µM) | 4 (≈ 2.3 µM) | ≤ 0.06 | 8.0 | – | – | ≤ 0.06 | MIC [19]: 0.5 µg/mL (≈ 0.287 µM)
7 | CNC(CC(C)C)C(=O)NC1C(=O)NC(CC(N)=O)C(=O)NC2C(=O)NC3C(=O)NC(C(=O)NC(C(=O)O)c4cc(O)cc(O)c4-c4cc3ccc4O)C(OC3CC(C)(N)C(O)C(C)O3)c3ccc(c(Cl)c3)Oc3cc2cc(c3OC2OC(CO)C(O)C(O)C2OC2CC(C)(NCc3ccc4c(c3)CCO4)C(O)C(C)O2)Oc2ccc(cc2Cl)C1O (stereo not shown) [Compound 82] | ≤ 0.06 | 1 (≈ 0.58 µM) | 0.125 (≈ 0.0725 µM) | 2 (≈ 1.16 µM) | 4 (≈ 2.32 µM) | 1 (≈ 0.58 µM) | 0.5 (≈ 0.29 µM) | – | 0.5 (≈ 0.29 µM) | ≤ 0.06 | 2 (≈ 1.16 µM) | 0.125 (≈ 0.0725 µM) | 4 (≈ 2.32 µM) | 8 (≈ 4.64 µM) | 8 (≈ 4.64 µM) | ≤ 0.06 | 22 | 0.50 | – | 0.5 (≈ 0.29 µM) | MIC [19]: ≤ 0.06 µg/mL
8 | CNC(CC(C)C)C(=O)NC1C(=O)NC(CC(N)=O)C(=O)NC2C(=O)NC3C(=O)NC(C(=O)NC(C(=O)O)c4cc(O)cc(O)c4-c4cc3ccc4O)C(OC3CC(C)(N)C(O)C(C)O3)c3ccc(c(Cl)c3)Oc3cc2cc(c3OC2OC(CO)C(O)C(O)C2OC2CC(C)(NCc3ccc4c(c3)CCCC4)C(O)C(C)O2)Oc2ccc(cc2Cl)C1O (stereo not shown) [Compound 168] | ≤ 0.06 | 1 (≈ 0.576 µM) | ≤ 0.06 | ≤ 0.06 | ≤ 0.06 | 0.5 (≈ 0.288 µM) | ≤ 0.06 | ≤ 0.06 | 0.5 (≈ 0.288 µM) | ≤ 0.06 | 0.25 (≈ 0.144 µM) | 2 (≈ 1.15 µM) | – | 0.5 (≈ 0.288 µM) | 2 (≈ 1.15 µM) | ≤ 0.06 | 3.4 | 0.10 | 0.5 (≈ 0.288 µM) | ≤ 0.06 | –
9 | CNC(CC(C)C)C(=O)NC1C(=O)NC(CC(N)=O)C(=O)NC2C(=O)NC3C(=O)NC(C(=O)NC(C(=O)O)c4cc(O)cc(O)c4-c4cc3ccc4O)C(OC3CC(C)(N)C(O)C(C)O3)c3ccc(c(Cl)c3)Oc3cc2cc(c3OC2OC(CO)C(O)C(O)C2OC2CC(C)(NCc3cc(C)cc(C)c3)C(O)C(C)O2)Oc2ccc(cc2Cl)C1O (stereo not shown) [Compound 89] | – | 1 (≈ 0.585 µM) | ≤ 0.06 | 0.5 (≈ 0.292 µM) | 1 (≈ 0.585 µM) | 1 (≈ 0.585 µM) | ≤ 0.06 | – | – | ≤ 0.06 | 0.125 (≈ 0.0731 µM) | ≤ 0.06 | 1 (≈ 0.585 µM) | 1 (≈ 0.585 µM) | 2 (≈ 1.17 µM) | ≤ 0.06 | 11 | 0.44 | 0.5 (≈ 0.292 µM) | ≤ 0.06 | MIC [19]: ≤ 0.06 µg/mL
